In patent publication US20140199760A1, “PLANTS HAVING ENHANCED ABIOTIC STRESS RESISTANCE” (UNIVERSITY OF TORONTO, priority 2011, published 2014):

Legend:
[1] = system: canola (Westar cultivar); experiment: Drought treatment of canola with BRZ added to soil; water loss per final shoot dry weight; assay type: in vivo
[2] = system: soybean (OAC Wallace cultivar); experiment: Drought treatment of soybean with BRZ added to soil; water loss per final shoot dry weight; assay type: in vivo
Excerpt: (§1) FIG. 2. (A) Soil water content of wild-type Columbia (red), era1-2 (green), and line cyp85a2 (blue) during a drought treatment. […] Error bars represent standard error (n=8). (B) Water loss during the first 9 days of drought treatment divided by the final shoot dry weight (SDW) in wild-type Columbia, era1-2, and line cyp85a2. Error bars represent standard error (n=6). (C) Cold stress treatment. […]
(§2) Soil (20:20:20), prepared that day, was consistently weighed into pots (typically 140 g) and covered with a plastic wrap (GLAD Press'n Seal® Wrap) that had been punctured with a small hole in the centre. […] This was typically done by withholding water for 9 days after which shoot biomass was harvested and fresh weight was determined. Shoots were then dried at 60 C for 3 days and dry weight was determined. […]
(§3) The observation that a deficiency in endogenous BL in cyp85a2 enables drought resistance to Arabidopsis prompted the hypothesis that a similar mechanism might exist in other plant species, such as corn, soybean, and canola. […] Immediately […] the start of the experiment, daily measurements of water use were monitored to quantify the rate of water loss. […]

[3] = system: corn (B73 cultivar); experiment: Drought treatment of corn with BRZ added to soil; water loss per final shoot dry weight; assay type: in vivo
Excerpt: as §1, §2, §3

[4] = system: bean crop; settings: applied brassinolide; cited from earlier work
[5] = 10 μM final concentration in soil, root uptake, 4 day drought, vs untreated controls

Row | SMILES | water use efficiency improved [1, 5] | water loss per unit of shoot weight than that of the untreated controls ([1]; 10 μM final, drought, P<0.05) | water use efficiency improved [2, 5] | water loss per unit of shoot weight than that of the untreated controls ([2]; 10 μM final, drought, P<0.05) | water use efficiency improved ([3]; 20 μM final concentration in soil, root uptake, 3.5 day drought, vs untreated controls) | water loss per unit of shoot weight than that of the untreated controls ([3]; 20 μM final, drought, P<0.05) | increase bean crop yield [4]
1 | CC(O)(c1ccccc1)C(Cc1ccc(Cl)cc1)n1cncn1 (stereo not shown) [BRZ, Brassinazole] | 15% | significantly less | 14% | significantly less | 28% | significantly less | 
2 | CC(C)[C@H](C)[C@@H](O)[C@H](O)[C@@H](C)[C@H]1CC[C@H]2[C@@H]3COC(=O)[C@H]4C[C@H](O)[C@H](O)C[C@]4(C)[C@H]3CC[C@]12C [brassinolide, Brassinolide] |  |  |  |  |  |  | approximately 45%
